{"source": "patent US7230033B2", "about": "“Pest control compositions and methods for their use” (United States of America as represented by the Secretary of …, priority 2000, dated 2007)", "key": {"Aedes aegypti adults": {"test_system": "Aedes aegypti adults", "assay": "Residual activity, aged treated bottles, mosquitoes", "format": "in vivo", "method": "Adult mosquitoes were tested using the bottle bioassay method of Brogden and McAllister (J. Am. Mosq. Control Assoc., 14:159–64, 1998) with minor modifications. Natural product extracts were two-fold serially diluted for a total of 8 concentrations ranging from 0.002% to 0.25% in 1.5 ml of acetone. Individual dilutions were added to 250 ml Wheaton glass bottles and capped. Bottles were manipulated to evenly coat all inner surfaces. The caps were removed and bottles were allowed to air-dry overnight. Once bottles were completely dry, 10–50 (in some tests 25–50) adult mosquitoes were aspirated into the bottles. Mosquitoes were held in the bottles for 24 h at 23° C. and 85% RH. Morbidity and mortality were recorded at 15, 30, 45, and 60 min and 24 hour intervals. One bottle for each replicate was treated with acetone only and served as a control. The dose-mortality data was evaluated with probit analysis, using the LdP Line software, to determine LC50 and LC90 values."}, "[1]": {"test_system": "nymphal Ixodes scapularis", "assay": "Treated-vial biocidal screening with 2% acetone solutions (Example 2), tick nymphs", "format": "in vivo", "conditions": "treated vials sat 72 h; arthropods added for the final 24 h", "method": "(§1) Samples of the compounds listed below were obtained as described in Example 1, and screened for biocidal activities against nymphal Ixodes scapularis. In this example, 2% acetone solutions (wt/vol) of the compounds were applied to inner surfaces of 2-dram friction cap vials. Vials and caps were treated then allowed to dry for a minimum of 4 hours before placing 10 nymphs in each container. These same vials were used to challenge additional nymphs and adult I. scapularis ticks and adult Xenopsylla cheopis fleas through five weeks to observe any possible residual activity.\n(§2) Numbers in parentheses refer to length of treatment in terms of hours (h) or weeks (wk). Data is presented in terms of number killed/number tested. For test periods longer than 24 hours, the treated vials were allowed to sit for the stated period after drying (72 h, 4 wk, or 5 wk) and each group of arthropods was added to the vials for the final 24 h of the test period."}, "[2]": {"test_system": "ticks, fleas, formicids and termites", "assay": "Persistence of biocidal activity in vials treated with 2% solutions (Example 5)", "format": "in vivo", "conditions": "at 11 weeks", "method": "as §1\nPersistence of biocidal activity was determined for nootkatone and valencene-11,12-epoxide by using the vials as treated with the 2% solutions of Example 2. This bioassay employed groups of ticks, fleas, formicids and termites using a method similar to that described in Example 2. […] At 11 weeks, the biocidal activity began to dissipate below the 100% mortality level."}, "Ae. aegypti adults": {"test_system": "Ae. aegypti adults", "assay": "Adult mosquito bottle bioassay", "format": "in vivo, Aedes aegypti"}, "Culex p. pipiens": {"test_system": "Culex p. pipiens", "assay": "Mosquito susceptibility, serial dilutions (Example 8)", "conditions": "in vivo"}, "Aedes aegypti": {"test_system": "Aedes aegypti", "assay": "Mosquito susceptibility, serial dilutions (Example 8)", "conditions": "in vivo"}, "I. scapularis nymphs": {"test_system": "I. scapularis nymphs", "assay": "Tick bioassay, treated 2-dram vials, probit analysis", "format": "in vivo, Ixodes scapularis", "source_text": "A control treated with acetone only was run with each series.\nFor each time point, if ticks and fleas were incapable of movement, maintaining normal posture, leg coordination, ability to right themselves, or any signs of life, they were considered moribund or dead."}, "[3]": {"test_system": "ticks, fleas, and mosquitoes", "assay": "Residual activity, general statements (Examples 9, 17)", "format": "in vivo", "conditions": "ticks"}, "Ixodes scapularis nymphs": {"test_system": "Ixodes scapularis nymphs", "assay": "Residual activity, aged treated vials, ticks", "format": "in vivo", "method": "Briefly, groups of 10 nymphal I. scapularis and X. cheopis fleas were used in all tests (more than a total of 5,240 nymphs and 4,860 fleas were exposed to the compounds). The inner surface of 2-dram friction cap vials were treated with the compound/acetone solution, or acetone only as a control, and left to air-dry overnight (see also, Panella et al., J. Med. Entomol., 42(3):352-358, 2005. Three to 4 holes were made in the plastic cap to allow for air exchange. Nymphal ticks and adult fleas were then placed directly into the vials using forceps. Vials containing ticks or fleas were placed in desiccators for 24 h at 21° C. and 90% RH. Morbidity and mortality was recorded at 1, 2, 4, 8, and 24 h after initial exposure."}, "[4]": {"test_system": "adult I. scapularis ticks", "assay": "Treated-vial biocidal screening with 2% acetone solutions (Example 2), adult ticks, residual", "format": "in vivo, Ixodes scapularis", "conditions": "treated vials sat 4 wk; arthropods added for the final 24 h", "method": "as §1, §2"}, "[5]": {"test_system": "fourth-instar Aedes aegypti larvae", "assay": "Larval mosquito bioassay", "format": "in vivo", "conditions": "Aedes aegypti larval mosquitoes; concentration of the 1 ml added to 150 ml water", "method": "Individual groups of 10 fourth-instar Aedes aegypti larvae were contained in 150 ml of water and exposed to […] of essential oils prepared by 2-fold serial dilutions ranging from 0.06%–5.0% in 1 ml of acetone. A control group of larvae were exposed to 1 ml of acetone only.\nIt is important to note that larval mosquitoes are tested in their natural environment, i.e., in water. The particular assays used herein involved groups of 10 larval mosquitoes in 150 ml of water. The weight percentages reported for lethal concentration for larval mosquitoes are the weight percentages added to the 150 ml water (as opposed to the final percentage of the tested compound(s) in the 150 ml water). As one of skill in the art will appreciate, test compound(s) added to a volume of water (such as, 150 ml) can be dramatically diluted depending upon the water solubility of the tested compound. […] If the tested compound is an oil (such as, carvacrol, nootkatone, or 13-hydroxy-valencene), it most likely floats on the surface of the water."}, "[6]": {"conditions": "4 weeks after treatment, NE = not effective"}, "[7]": {"conditions": "24 h exposure, NE = not effective at concentrations tested"}, "[8]": {"conditions": "Aedes aegypti adult mosquitoes, alone, or 1:1 with carvacrol (in parenthesis)"}, "[9]": {"conditions": "Ixodes scapularis nymphal ticks, alone, or 1:1 with carvacrol (in parenthesis)"}}, "data": [{"smiles": "C=C(C)[C@@H]1CCC2=CC(=O)C[C@@H](C)[C@]2(C)C1", "note": "[Compound 7, Nootkatone]", "values": [{"measurement": "LC90, residual activity", "setting": "Aedes aegypti adults; 1 week after treatment", "result": "0.054 percent concentration, wt:vol"}, {"measurement": "Slope, residual activity", "setting": "Aedes aegypti adults; 1 week after treatment", "result": 3.043}, {"measurement": "Slope, residual activity", "setting": "Aedes aegypti adults; 2 weeks after treatment", "result": 3.342}, {"measurement": "LC90, residual activity", "setting": "Aedes aegypti adults; 2 weeks after treatment, NE = not effective", "result": "0.046 percent concentration, wt:vol"}, {"measurement": "Slope, residual activity", "setting": "Aedes aegypti adults; 4 weeks after treatment", "result": 2.698}, {"measurement": "LC90, residual activity", "setting": "Aedes aegypti adults; [6]", "result": "0.038 percent concentration, wt:vol"}, {"measurement": "I. scapularis nymphs (72 h), number killed/number tested", "setting": "[1]", "result": "5/5"}, {"measurement": "mortality level", "setting": "[2]", "result": "< 100", "unit": "%"}, {"measurement": "LC90", "setting": "Ae. aegypti adults; [7]", "result": "0.0092 percent concentration, wt:vol"}, {"measurement": "Slope", "setting": "Ae. aegypti adults; 24 h exposure, probit", "result": 6.22}, {"measurement": "LC50 (15 min)", "setting": "Ae. aegypti adults; [8]", "result": "0.035 % (wt:vol)"}, {"measurement": "LC50 (24 h)", "setting": "Ae. aegypti adults; [8]", "result": "0.0057 % (wt:vol)"}, {"measurement": "LC90 (15 min)", "setting": "Ae. aegypti adults; [8]", "result": "0.119 % (wt:vol)"}, {"measurement": "LC90 (24 h)", "setting": "Ae. aegypti adults; [8]", "result": "0.0092 % (wt:vol)"}, {"measurement": "LC50 (15 min)", "setting": "Ae. aegypti adults; Aedes aegypti adult mosquitoes, alone, or 1:1 with carvacrol (in parenthesis), listed as compound 7", "result": "0.035 % (wt:vol)"}, {"measurement": "C. pipiens. LD50", "setting": "Culex p. pipiens", "result": "<4.5 × 10^−3"}, {"measurement": "A. aegypti LD50", "setting": "Aedes aegypti", "result": "<4.5 × 10^−3"}, {"measurement": "LC90", "setting": "I. scapularis nymphs; [7]", "result": "0.0055 percent concentration, wt:vol"}, {"measurement": "Slope", "setting": "I. scapularis nymphs; 24 h exposure, probit", "result": 4.708}, {"measurement": "LC50 (1 h)", "setting": "I. scapularis nymphs; [9]", "result": "0.126 % (wt:vol)"}, {"measurement": "LC50 (24 h)", "setting": "I. scapularis nymphs; [9]", "result": "0.0029 % (wt:vol)"}, {"measurement": "LC90 (1 hr)", "setting": "I. scapularis nymphs; [9]", "result": "0.725 % (wt:vol)"}, {"measurement": "LC90 (24 h)", "setting": "I. scapularis nymphs; [9]", "result": "0.0055 % (wt:vol)"}, {"measurement": "LC50 (24 h)", "setting": "I. scapularis nymphs; Ixodes scapularis nymphal ticks, alone, or 1:1 with carvacrol (in parenthesis), listed as compound 7", "result": "0.0029 % (wt:vol)"}, {"measurement": "residual activity", "setting": "[3]", "result": "considerable biological activity through the four week time period"}, {"measurement": "Slope, residual activity", "setting": "Ixodes scapularis nymphs; 1 week after treatment", "result": 1.682}, {"measurement": "Slope, residual activity", "setting": "Ixodes scapularis nymphs; 2 weeks after treatment", "result": 1.586}, {"measurement": "Slope, residual activity", "setting": "Ixodes scapularis nymphs; 4 weeks after treatment", "result": 1.609}, {"measurement": "LC50, residual activity", "setting": "Ixodes scapularis nymphs; [6]", "result": "0.026 percent concentration, wt:vol"}, {"measurement": "I. scapularis adults (4 wk), number killed/number tested", "setting": "[4]", "result": "5/5"}, {"measurement": "LC50 (1 h)", "setting": "[5]", "result": "5.327 % (wt:vol)"}, {"measurement": "LC50 (24 h)", "setting": "[5]", "result": "1.605 % (wt:vol)"}, {"measurement": "LC90 (1 hr)", "setting": "[5]", "result": "14.045 % (wt:vol)"}, {"measurement": "LC90 (24 h)", "setting": "[5]", "result": "2.59 % (wt:vol)"}]}]}
